Measurements: the NIST ThermoML archive (doi:10.1016/j.jct.2013.11.036)

Assay: mn = molality of the nth substance listed, in mol/kg
Details: Liquid, Constant-volume piezometry

CCCO [propan-1-ol] + O
Details | mass density [kg/m3]
383.2 K, 3256 kPa, m1 = 7.407 | 879.4
383.2 K, 6865 kPa, m1 = 7.407 | 881.7
383.2 K, 12651 kPa, m1 = 7.407 | 885.3
393.03 K, 3256 kPa, m1 = 14.38 | 830.8
393.03 K, 6453 kPa, m1 = 14.38 | 833.7
393.03 K, 9885 kPa, m1 = 14.38 | 836.6
393.03 K, 13239 kPa, m1 = 14.38 | 838.9
394.81 K, 3472 kPa, m1 = 2.531 | 911.1
394.81 K, 7845 kPa, m1 = 2.531 | 913.4
394.81 K, 11768 kPa, m1 = 2.531 | 915.6
398.15 K, 5000 kPa, m1 = 0.869 | 932
398.15 K, 5000 kPa, m1 = 2.465 | 912.7
398.15 K, 10000 kPa, m1 = 0.869 | 934.6
398.15 K, 10000 kPa, m1 = 2.465 | 915.5
398.15 K, 20000 kPa, m1 = 0.869 | 939.5
398.15 K, 20000 kPa, m1 = 2.465 | 920.8
398.15 K, 30000 kPa, m1 = 0.869 | 943.9
398.15 K, 30000 kPa, m1 = 2.465 | 925.7
398.15 K, 40000 kPa, m1 = 0.869 | 948
398.15 K, 40000 kPa, m1 = 2.465 | 930.1
410.72 K, 3923 kPa, m1 = 56.35 | 771.4
410.72 K, 10787 kPa, m1 = 56.35 | 780.5
423.15 K, 5000 kPa, m1 = 0.869 | 909.2
423.15 K, 5000 kPa, m1 = 2.465 | 888.1
423.15 K, 10000 kPa, m1 = 0.869 | 912.1
423.15 K, 10000 kPa, m1 = 2.465 | 891.4
423.15 K, 20000 kPa, m1 = 0.869 | 917.6
423.15 K, 20000 kPa, m1 = 2.465 | 897.5
423.15 K, 30000 kPa, m1 = 0.869 | 922.6
423.15 K, 30000 kPa, m1 = 2.465 | 903.1
423.15 K, 40000 kPa, m1 = 0.869 | 927
423.15 K, 40000 kPa, m1 = 2.465 | 908
423.61 K, 3432 kPa, m1 = 14.38 | 797.3
423.61 K, 6453 kPa, m1 = 14.38 | 800.5
423.61 K, 10042 kPa, m1 = 14.38 | 804.1
423.61 K, 12827 kPa, m1 = 14.38 | 806.4
426.33 K, 3668 kPa, m1 = 2.531 | 880.3
426.33 K, 6865 kPa, m1 = 2.531 | 882.1
426.33 K, 10787 kPa, m1 = 2.531 | 884.4
427.06 K, 4001 kPa, m1 = 7.407 | 834.6
427.06 K, 6453 kPa, m1 = 7.407 | 836.9
427.06 K, 10375 kPa, m1 = 7.407 | 839.8
448.15 K, 5000 kPa, m1 = 0.869 | 883
448.15 K, 5000 kPa, m1 = 2.465 | 860.5
448.15 K, 10000 kPa, m1 = 0.869 | 886.4
448.15 K, 10000 kPa, m1 = 2.465 | 864.4
448.15 K, 20000 kPa, m1 = 0.869 | 892.7
448.15 K, 20000 kPa, m1 = 2.465 | 871.5
448.15 K, 30000 kPa, m1 = 0.869 | 898.3
448.15 K, 30000 kPa, m1 = 2.465 | 877.9
448.15 K, 40000 kPa, m1 = 0.869 | 903.2
448.15 K, 40000 kPa, m1 = 2.465 | 883.5
457.85 K, 3589 kPa, m1 = 14.38 | 754.1
457.85 K, 8198 kPa, m1 = 14.38 | 760.4
457.85 K, 13141 kPa, m1 = 14.38 | 766.1
463.81 K, 4805 kPa, m1 = 7.407 | 790.8
463.81 K, 7355 kPa, m1 = 7.407 | 793.5
463.81 K, 10787 kPa, m1 = 7.407 | 796.8
472.74 K, 3668 kPa, m1 = 2.531 | 826.7
472.74 K, 6531 kPa, m1 = 2.531 | 829.7
472.74 K, 10297 kPa, m1 = 2.531 | 832.6
486.26 K, 7512 kPa, m1 = 56.35 | 668.9
486.26 K, 11278 kPa, m1 = 56.35 | 680.2
500.33 K, 4982 kPa, m1 = 2.531 | 790
500.33 K, 7100 kPa, m1 = 2.531 | 792.6
500.33 K, 9316 kPa, m1 = 2.531 | 794.5
501.66 K, 4491 kPa, m1 = 14.38 | 685
501.66 K, 6943 kPa, m1 = 14.38 | 691.7
501.66 K, 10415 kPa, m1 = 14.38 | 699.7
501.66 K, 14298 kPa, m1 = 14.38 | 706.5
504.03 K, 4805 kPa, m1 = 7.407 | 730.7
504.03 K, 7669 kPa, m1 = 7.407 | 735.5
504.03 K, 9807 kPa, m1 = 7.407 | 739.6
504.03 K, 10866 kPa, m1 = 7.407 | 741.9
536.99 K, 10160 kPa, m1 = 56.35 | 558.4
536.99 K, 11140 kPa, m1 = 56.35 | 566.4
536.99 K, 11591 kPa, m1 = 56.35 | 573.2
537.32 K, 9885 kPa, m1 = 14.38 | 619.3
537.32 K, 10611 kPa, m1 = 14.38 | 628.3
537.32 K, 14298 kPa, m1 = 14.38 | 642.1
538.96 K, 7433 kPa, m1 = 2.531 | 728.6
538.96 K, 8649 kPa, m1 = 2.531 | 731.3
538.96 K, 11023 kPa, m1 = 2.531 | 736.1
543.97 K, 7335 kPa, m1 = 7.407 | 653.7
543.97 K, 10532 kPa, m1 = 7.407 | 666.5
543.97 K, 12749 kPa, m1 = 7.407 | 673.5
574.64 K, 11886 kPa, m1 = 56.35 | 322.1
574.64 K, 13082 kPa, m1 = 56.35 | 409.5
574.64 K, 14004 kPa, m1 = 56.35 | 441.1
574.64 K, 14509 kPa, m1 = 56.35 | 456.5
574.64 K, 15043 kPa, m1 = 56.35 | 468
575.95 K, 11768 kPa, m1 = 14.38 | 437.4
575.95 K, 11886 kPa, m1 = 14.38 | 475.9
575.95 K, 13317 kPa, m1 = 14.38 | 509.3
575.95 K, 13729 kPa, m1 = 14.38 | 521.1
577.86 K, 11717 kPa, m1 = 2.531 | 643.6
577.86 K, 11768 kPa, m1 = 2.531 | 652.5
577.86 K, 12160 kPa, m1 = 2.531 | 656.7
582.08 K, 12239 kPa, m1 = 7.407 | 540
582.08 K, 12866 kPa, m1 = 7.407 | 557.8
582.08 K, 13670 kPa, m1 = 7.407 | 567.6
582.08 K, 14377 kPa, m1 = 7.407 | 576.7
